The values that follow come from US20100099774A1 (priority 2007, published 2010).

Holding throughout (format): cell-based
In one assay the test system is Colleotrichum lagenarium. Particulars: 63 ppm, 2% aqueous biomalt solution, 405 nm, 7 days after inoculation, Abbot's formula.
A further assay deals with Monographella nivalis. Particulars: 63 ppm.
The next assay relates to Phytophthora infestans. Particulars: 63 ppm, pea juice-based aqueous nutrient medium, 405 nm, 7 days after inoculation, Abbot's formula.
In assay [1] the test system is Pseudocercosporella herpotrichoides R-Type. Particulars: 63 ppm.
Assay [2] deals with Pseudocercosporella herpotrichoides W-Type. As to conditions: 63 ppm.
For the next assay, the system named is Pyricularia oryzae. As to conditions: 63 ppm, 2% aqueous biomalt solution, 405 nm, 7 days after inoculation, Abbot's formula.
The next assay relates to Pyrenophora teres. As to conditions: 63 ppm.
For the next assay, the system named is Rhynchosporium secalis. As to conditions: 63 ppm.
For the next assay, the system named is Septoria tritici. Particulars: 63 ppm.
The subject of another assay is Colleotrichum truncatum. As to conditions: 63 ppm, 2% aqueous biomalt solution, 405 nm, 7 days after inoculation, Abbot's formula.
Another assay concerns Corynespora cassiicola. Particulars: 63 ppm.
The subject of a further assay is Septoria glycines. As to conditions: 63 ppm.
A further assay deals with Leptosphaeria nodorum. Particulars: 63 ppm.

`CCN/C(=N\Nc1c(Cl)cc(C(F)(F)F)cc1Cl)C1(C)CC1(Cl)Cl` (stereo not drawn) [compound I-2, N-Ethyl-2,2-dichloro-1-methylcyclopropane-carboxamide-2-(2,6-dichloro-α,α,α-trifluoro-p-tolyl)hydrazone]: the Efficacy with Colleotrichum lagenarium worked out at 89%; in the assay with Monographella nivalis it was 100%; with Phytophthora infestans it was 100%; in assay [1] it was 100%; in assay [2], 100%; in the assay with Pyricularia oryzae, 91%. Besides, the Efficacy with Pyrenophora teres is recorded as 96%; with Rhynchosporium secalis it was 100%; with Septoria tritici it was 100%; in the assay on Colleotrichum truncatum, 100%; in the assay with Corynespora cassiicola, 100%; with Septoria glycines, 100%. Also, the Efficacy in the assay on Leptosphaeria nodorum is recorded as 100%.
